In ChEMBL document CHEMBL5113453, “Design, synthesis, and biological evaluation of a new series of pyrazole derivatives: Discovery of potent and selective JNK3 kinase inhibitors” (Bioorg Med Chem, 2022):

Legend:
SW-620 = assay: Antiproliferative activity against human SW-620 cells measured after 48 hrs by SRB assay; format: functional, cell-based
HOP-62 = assay: Antiproliferative activity against human HOP-62 cells measured after 48 hrs by SRB assay; format: functional, cell-based
HL-60(TB) = assay: Antiproliferative activity against human HL-60(TB) cells measured after 48 hrs by SRB assay; format: functional, cell-based
MCF7 = assay: Antiproliferative activity against human MCF7 cells measured after 48 hrs by SRB assay; format: functional, cell-based
SF-268 = assay: Antiproliferative activity against human SF-268 cells measured after 48 hrs by SRB assay; format: functional, cell-based
HCT-116 = assay: Antiproliferative activity against human HCT-116 cells measured after 48 hrs by SRB assay; format: functional, cell-based
HT-29 = assay: Antiproliferative activity against human HT-29 cells measured after 48 hrs by SRB assay; format: functional, cell-based
NCI-H322M = assay: Antiproliferative activity against human NCI-H322M cells measured after 48 hrs by SRB assay; format: functional, cell-based
A549 = assay: Antiproliferative activity against human A549 cells measured after 48 hrs by SRB assay; format: functional, cell-based
SF-539 = assay: Antiproliferative activity against human SF-539 cells measured after 48 hrs by SRB assay; format: functional, cell-based
SN12C = assay: Antiproliferative activity against human SN12C cells measured after 48 hrs by SRB assay; format: functional, cell-based
CCRF-CEM = assay: Antiproliferative activity against human CCRF-CEM cells measured after 48 hrs by SRB assay; format: functional, cell-based
M14 = assay: Antiproliferative activity against human M14 cells measured after 48 hrs by SRB assay; format: functional, cell-based
NCI-H23 = assay: Antiproliferative activity against human NCI-H23 cells measured after 48 hrs by SRB assay; format: functional, cell-based
DU-145 = assay: Antiproliferative activity against human DU-145 cells measured after 48 hrs by SRB assay; format: functional, cell-based
MDA-MB-231 = assay: Antiproliferative activity against human MDA-MB-231 cells measured after 48 hrs by SRB assay; format: functional, cell-based
IGROV-1 = assay: Antiproliferative activity against human IGROV-1 cells measured after 48 hrs by SRB assay; format: functional, cell-based
CAKI-1 = assay: Antiproliferative activity against human CAKI-1 cells measured after 48 hrs by SRB assay; format: functional, cell-based
SK-MEL-2 = assay: Antiproliferative activity against human SK-MEL-2 cells measured after 48 hrs by SRB assay; format: functional, cell-based
K562 = assay: Antiproliferative activity against human K562 cells measured after 48 hrs by SRB assay; format: functional, cell-based
BT-549 = assay: Antiproliferative activity against human BT-549 cells measured after 48 hrs by SRB assay; format: functional, cell-based
RXF 393 = assay: Antiproliferative activity against human RXF 393 cells measured after 48 hrs by SRB assay; format: functional, cell-based
NCI/ADR-RES = assay: Antiproliferative activity against human NCI-ADR-RES cells measured after 48 hrs by SRB assay; format: functional, cell-based
UACC-257 = assay: Antiproliferative activity against human UACC-257 cells measured after 48 hrs by SRB assay; format: functional, cell-based
[1] = molecular target: Mitogen-activated protein kinase 10 (Homo sapiens, UniProt P53779); assay: Inhibition of JNK3 (unknown origin)
Chain of Mitogen-activated protein kinase 10 (P53779 whole entry): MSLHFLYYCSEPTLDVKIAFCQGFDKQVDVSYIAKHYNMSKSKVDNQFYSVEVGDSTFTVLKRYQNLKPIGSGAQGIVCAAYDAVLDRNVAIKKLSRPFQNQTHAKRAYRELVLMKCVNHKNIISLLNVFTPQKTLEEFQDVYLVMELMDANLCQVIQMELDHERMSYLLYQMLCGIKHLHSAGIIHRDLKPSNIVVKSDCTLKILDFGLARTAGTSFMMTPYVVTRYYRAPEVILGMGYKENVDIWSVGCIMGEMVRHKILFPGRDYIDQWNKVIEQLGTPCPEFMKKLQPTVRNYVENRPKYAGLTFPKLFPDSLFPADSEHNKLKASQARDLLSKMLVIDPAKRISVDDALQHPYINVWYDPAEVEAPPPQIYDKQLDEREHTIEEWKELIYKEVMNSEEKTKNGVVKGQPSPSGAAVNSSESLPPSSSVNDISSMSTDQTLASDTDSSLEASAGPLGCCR

UACC-62 = assay: Antiproliferative activity against human UACC-62 cells measured after 48 hrs by SRB assay; format: functional, cell-based
KM12 = assay: Antiproliferative activity against human KM12 cells measured after 48 hrs by SRB assay; format: functional, cell-based
U-251 = assay: Antiproliferative activity against human U-251 cells measured after 48 hrs by SRB assay; format: functional, cell-based
NCI-H522 = assay: Antiproliferative activity against human NCI-H522 cells measured after 48 hrs by SRB assay; format: functional, cell-based
SK-MEL-28 = assay: Antiproliferative activity against human SK-MEL-28 cells measured after 48 hrs by SRB assay; format: functional, cell-based
MDA-MB-468 = assay: Antiproliferative activity against human MDA-MB-468 cells measured after 48 hrs by SRB assay; format: functional, cell-based
SNB-75 = assay: Antiproliferative activity against human SNB-75 cells measured after 48 hrs by SRB assay; format: functional, cell-based
NCI-H460 = assay: Antiproliferative activity against human NCI-H460 cells measured after 48 hrs by SRB assay; format: functional, cell-based
786-0 = assay: Antiproliferative activity against human 786-0 cells measured after 48 hrs by SRB assay; format: functional, cell-based
NCI-H226 = assay: Antiproliferative activity against human NCI-H226 cells measured after 48 hrs by SRB assay; format: functional, cell-based
SR = assay: Antiproliferative activity against human SR cells measured after 48 hrs by SRB assay; format: functional, cell-based
T47D = assay: Antiproliferative activity against human T47D cells measured after 48 hrs by SRB assay; format: functional, cell-based
OVCAR-4 = assay: Antiproliferative activity against human OVCAR-4 cells measured after 48 hrs by SRB assay; format: functional, cell-based

**Q.** For `COc1cccc(-c2nn(-c3ccccc3)cc2-c2ccnc(NCCCNC(=O)Nc3ccc(F)cc3)c2)c1`, which IC50 (SW-620; SW-620, 48 h) is on record?
**A.** 8.02 µM

**Q.** And the TGI (SW-620; SW-620, time 48 hrs)?
**A.** > 37 µM

**Q.** What about the IC50 (HOP-62; HOP-62, 48 h) of the same molecule?
**A.** 14.7 µM

**Q.** And the TGI (HOP-62; HOP-62, time 48 hrs)?
**A.** > 37 µM

**Q.** What about the IC50 (HL-60(TB); HL-60, 48 h) of the same molecule?
**A.** 3.77 µM

**Q.** What about the TGI (HL-60(TB); HL-60, time 48 hrs) of the same molecule?
**A.** 13.7 µM

**Q.** And the IC50 (MCF7; MCF7, 48 h)?
**A.** 7.17 µM

**Q.** What about the TGI (MCF7; MCF7, time 48 hrs) of the same molecule?
**A.** 18 µM

**Q.** What about the IC50 (SF-268; SF-268, 48 h) of the same molecule?
**A.** 7.08 µM

**Q.** And the TGI (SF-268; SF-268, time 48 hrs)?
**A.** 30 µM

**Q.** And the IC50 (HCT-116; HCT-116, 48 h)?
**A.** 5.7 µM

**Q.** And the TGI (HCT-116; HCT-116, time 48 hrs)?
**A.** 17 µM

**Q.** And the IC50 (HT-29; HT-29, 48 h)?
**A.** 7.17 µM

**Q.** What about the TGI (HT-29; HT-29, time 48 hrs) of the same molecule?
**A.** 18.2 µM

**Q.** What about the IC50 (NCI-H322M; 48 h) of the same molecule?
**A.** 9.58 µM

**Q.** What about the TGI (NCI-H322M; time 48 hrs) of the same molecule?
**A.** > 37 µM

**Q.** What about the IC50 (A549; A549, 48 h) of the same molecule?
**A.** 9.95 µM

**Q.** And the TGI (A549; A549, time 48 hrs)?
**A.** > 37 µM

**Q.** And the IC50 (SF-539; SF-539, 48 h)?
**A.** 6.34 µM

**Q.** And the TGI (SF-539; SF-539, time 48 hrs)?
**A.** 13.4 µM

**Q.** And the IC50 (SN12C; 48 h)?
**A.** 9.83 µM

**Q.** And the TGI (SN12C; time 48 hrs)?
**A.** > 37 µM

**Q.** And the IC50 (CCRF-CEM; 48 h)?
**A.** 8.53 µM

**Q.** And the TGI (CCRF-CEM; time 48 hrs)?
**A.** 31.5 µM

**Q.** What about the IC50 (M14; M14, 48 h) of the same molecule?
**A.** 6.71 µM

**Q.** And the TGI (M14; M14, time 48 hrs)?
**A.** 19 µM

**Q.** And the IC50 (NCI-H23; NCI-H23, 48 h)?
**A.** 10.1 µM

**Q.** And the TGI (NCI-H23; NCI-H23, time 48 hrs)?
**A.** > 37 µM

**Q.** What about the IC50 (DU-145; DU-145, 48 h) of the same molecule?
**A.** 14 µM

**Q.** What about the TGI (DU-145; DU-145, time 48 hrs) of the same molecule?
**A.** > 37 µM

**Q.** And the IC50 (MDA-MB-231; MDA-MB-231, 48 h)?
**A.** 7.84 µM

**Q.** What about the TGI (MDA-MB-231; MDA-MB-231, time 48 hrs) of the same molecule?
**A.** 23 µM

**Q.** What about the IC50 (IGROV-1; IGROV-1, 48 h) of the same molecule?
**A.** 9.34 µM

**Q.** What about the TGI (IGROV-1; IGROV-1, time 48 hrs) of the same molecule?
**A.** > 37 µM

**Q.** What about the IC50 (CAKI-1; CAKI-1, 48 h) of the same molecule?
**A.** 8.63 µM

**Q.** And the TGI (CAKI-1; CAKI-1, time 48 hrs)?
**A.** > 37 µM

**Q.** And the IC50 (SK-MEL-2; SK-MEL-2, 48 h)?
**A.** 6.3 µM

**Q.** And the TGI (SK-MEL-2; SK-MEL-2, time 48 hrs)?
**A.** 12.6 µM

**Q.** And the IC50 (K562; K562, 48 h)?
**A.** 2.96 µM

**Q.** What about the TGI (K562; K562, time 48 hrs) of the same molecule?
**A.** > 37 µM

**Q.** And the IC50 (BT-549; BT-549, 48 h)?
**A.** 6.24 µM

**Q.** What about the TGI (BT-549; BT-549, time 48 hrs) of the same molecule?
**A.** 20.3 µM

**Q.** And the IC50 (RXF 393; RXF 393, 48 h)?
**A.** 6.02 µM

**Q.** What about the TGI (RXF 393; RXF 393, time 48 hrs) of the same molecule?
**A.** 28.6 µM

**Q.** And the IC50 (NCI/ADR-RES; 48 h)?
**A.** 7.29 µM

**Q.** And the TGI (NCI/ADR-RES; time 48 hrs)?
**A.** 25.4 µM

**Q.** What about the IC50 (UACC-257; UACC-257, 48 h) of the same molecule?
**A.** 7.05 µM

**Q.** What about the TGI (UACC-257; UACC-257, time 48 hrs) of the same molecule?
**A.** 16.9 µM

**Q.** What about the IC50 [1] of the same molecule?
**A.** > 1 µM

**Q.** And the IC50 (UACC-62; UACC-62, 48 h)?
**A.** 7.57 µM

**Q.** And the TGI (UACC-62; UACC-62, time 48 hrs)?
**A.** 24.2 µM

**Q.** And the IC50 (KM12; KM12, 48 h)?
**A.** 10.5 µM

**Q.** What about the TGI (KM12; KM12, time 48 hrs) of the same molecule?
**A.** > 37 µM

**Q.** What about the IC50 (U-251; U-251, 48 h) of the same molecule?
**A.** 9.84 µM

**Q.** What about the TGI (U-251; U-251, time 48 hrs) of the same molecule?
**A.** > 37 µM

**Q.** What about the IC50 (NCI-H522; NCI-H522, 48 h) of the same molecule?
**A.** 5.07 µM

**Q.** And the TGI (NCI-H522; NCI-H522, time 48 hrs)?
**A.** 12 µM

**Q.** What about the IC50 (SK-MEL-28; SK-MEL-28, 48 h) of the same molecule?
**A.** 6.57 µM

**Q.** And the TGI (SK-MEL-28; SK-MEL-28, time 48 hrs)?
**A.** 15.5 µM

**Q.** What about the IC50 (MDA-MB-468; MDA-MB-468, 48 h) of the same molecule?
**A.** 4.83 µM

**Q.** And the TGI (MDA-MB-468; MDA-MB-468, time 48 hrs)?
**A.** 13 µM

**Q.** And the IC50 (SNB-75; SNB-75, 48 h)?
**A.** 4.18 µM

**Q.** What about the TGI (SNB-75; SNB-75, time 48 hrs) of the same molecule?
**A.** 22.7 µM

**Q.** And the IC50 (NCI-H460; NCI-H460, 48 h)?
**A.** 6.54 µM

**Q.** And the TGI (NCI-H460; NCI-H460, time 48 hrs)?
**A.** 17.1 µM

**Q.** And the IC50 (786-0; 786-0, 48 h)?
**A.** 9.34 µM

**Q.** And the TGI (786-0; 786-0, time 48 hrs)?
**A.** > 37 µM

**Q.** What about the IC50 (NCI-H226; NCI-H226, 48 h) of the same molecule?
**A.** 10.8 µM

**Q.** What about the TGI (NCI-H226; NCI-H226, time 48 hrs) of the same molecule?
**A.** > 37 µM

**Q.** What about the IC50 (SR; 48 h) of the same molecule?
**A.** 7.7 µM

**Q.** What about the TGI (SR; time 48 hrs) of the same molecule?
**A.** > 37 µM

**Q.** And the IC50 (T47D; 48 h)?
**A.** 7.95 µM

**Q.** And the TGI (T47D; time 48 hrs)?
**A.** > 37 µM

**Q.** What about the IC50 (OVCAR-4; OVCAR-4, 48 h) of the same molecule?
**A.** 10.5 µM

**Q.** And the TGI (OVCAR-4; OVCAR-4, time 48 hrs)?
**A.** > 37 µM
